The values below come from publication PMC9503608, “An Insight into Symmetrical Cyanine Dyes as Promising Selective Antiproliferative Agents in Caco-2 Colorectal Cancer Cells” (Molecules, 2022).

The structures appear in SMILES notation.

In one series the test system is NHDF cell line. The experiment in a line: Photocytotoxicity evaluation (MTT after white LED light irradiation). In kind it is cell-based, human. Conditions: 30 min white LED light versus dark. Here is the method: The photocytotoxicity evaluation was performed on the NHDF cell line similar to the above MTT cell viability assay. In contrast to 72 h continuous incubation in the dark with test solutions, cells were subjected to 30 min of constant irradiation with white light from an RGBW LED projector (220–240 V and 30 W, Luxtar) after 48 h of incubation. This light source emits radiation at wavelengths suitable for the excitation of evaluated dye (see support information) with a total fluence rate of 1.196 W/sr·m^2 (measured with a pr-650 spectrascan spectroradiometer, Photo Research Inc., Chatsworth, CA, USA). During the photocytotoxicity treatment, the device was placed over the culture cell plates supported by a closed system at a distance of 12 cm. The maximum temperature of the exposure of the cells was 37 °C. After this irradiation, cells were incubated for an additional 24 h, making up a total of 72 h incubation and exposure to the test solutions. To check the validity of the light source, the squaraine dye 4, which was previously described with relevant photodynamic activity, was used as a positive control. A photocytotoxicity assay was performed in quadruplicate, and at least two independent assays were achieved.

Series [1] can be described thus: MTT cell viability assay, NHDF. Conditions: human, normal human dermal fibroblasts (NHDF), single concentration of 10 µM, 72 h, mean ± SD; read-out: cell viability percentage in relation with control, NHDF. In kind it is cell-based, human. How it is done: (§1) Caco-2, MCF-7, PC-3, and NHDF cell lines were obtained from the American Type Culture Collection (ATCC) and maintained in 75 cm^2 culture flasks in a humidified atmosphere at 37 °C with 5% carbon dioxide using a LEEC Culture Safe Precision CO2 Incubator. The culture media was renewed every two to three days. The NHDF cell line was cultured in Roswell Park Memorial Institute (RPMI) medium supplemented with 10% of inactivated fetal bovine serum (FBS), 2 mM of L-glutamine, 10 mM of 4-(2-hydroxyethyl)-1-piperazineethanesulfonic acid (HEPES), 1 mM of sodium pyruvate, and 1% of antibiotic/antimycotic mixture (Ab; 10,000 U/mL of penicillin G, […] of streptomycin, and 25 µg/mL of amphotericin B). The PC-3 cell line was also cultured in RPMI 1640 medium supplemented with 10% inactivated FBS and 1% of an antibiotic mixture (Sp; 10,000 U/mL of penicillin G and […] of streptomycin). The Caco-2 and MCF-7 cell lines were grown in Dulbecco’s Modified Eagle Medium (DMEM). Caco-2 was supplemented with 20% of inactivated FBS and 1% of Sp. On the other hand, the MCF-7 medium was complemented with 10% of inactivated FBS and 1% of Ab. All manipulations were performed in a Labculture Class II A2 Biological Safety Cabinet.
(§2) After the near confluency of cultures, cells were detached with a solution of 0.125 g/L trypsin and 0.02 g/L ethylenediaminetetracetic acid (EDTA), counted using the trypan blue method, resuspended, and seeded in 96-well culture plates (100 µL, 2 × 10^4 cells/mL). Following 48 h of adherence, cells were treated with the test solutions and incubated for 72 h. This incubation, as well as the solution manipulations, were performed in an environment protected from light. After the incubation, the medium was replaced with a fresh incomplete culture medium (without FBS and Ab or Sp) and MTT solution (5 mg/mL in phosphate buffer saline (PBS)). After additional incubation for 4 h, the MTT medium was removed, formazan crystals were dissolved in DMSO, and the optical density of each well was measured at 570 nm using a microplate spectrophotometer Bio-Rad xMark. Untreated cells were used as a negative control and 5-FU as the positive control. The results were expressed as the relative cell proliferation relative to the negative control cells. […] To determine the IC50 values, Caco-2, MCF-7, PC-3, and NHDF cells were exposed to increasing concentrations between 0.001 and 100 μM.
On the technique in general: Tetrazolium dyes change colour on reduction, which living cells bring about.

For series [2], the system named is normal human dermal fibroblasts (NHDF). Description: MTT cell viability assay, NHDF. The series is classed as cell-based. Conditions: Homo sapiens, NHDF, 72 h, 72 h of incubation, MTT, protected from light. Here is the method: as §1, §2
For series [3], the system named is PC-3 prostate adenocarcinoma cell line. The experiment in a line: MTT cell viability assay, PC-3. The series is classed as cell-based, human. Here is the method:
as §1, §2

With `CN1C(=Cc2oc3ccccc3[n+]2C)Oc2ccccc21.Cc1ccc(S(=O)(=O)[O-])cc1` [Dye 12, 3-Methyl-2-((3-methylbenzo[d]oxazol-2(3H)-ylidene)methyl)benzo[d]oxazol-3-ium 4-methylbenzenesulfonate], the “photocytotoxicity (irradiation influence on cytotoxicity)” value in the series with NHDF cell line is listed as “total absence of photocytotoxicity”. Also, in series [1], the viability (in general, the share of living cells, or the viability signal relative to a control) at 72 h, 10 µM stood at 41 ± 0.82%. The IC50 (usually the concentration that gives 50% inhibition) stood at 14 µM in series [2] and 4.53 µM in series [3] (Homo sapiens, 72 h of incubation, MTT, protected from light). Also, the viability at 10 µM in series [3] (Homo sapiens, 72 h, single concentration of 10 µM, 72 h, mean ± SD, read-out: cell viability percentage in relation with control, PC-3) is 9.33 ± 4.28%. Moreover, the “SI PC-3 (selectivity index, cancer versus NHDF)” value in series [3] (PC-3 versus NHDF, 72 h) is reported as 3.1.
